Test [1] concerns the target T1, purified recombinant human LDHA (rhLDHA) (Homo sapiens, UniProt P00338).
T1 construct: made in house
In words: NADH binding assay (LDHA binding to Cibacron Blue 3GA agarose). Particulars: machilin A 10 and 100 μM; NADH positive control. As to the method: An NADH binding assay was performed as described previously. The NADH binding ability of LDHA was determined by measuring the affinity of LDHA to agarose-immobilized Cibacron Blue 3GA, which resembles NADH. Then, 400 ng of purified recombinant human LDHA (rhLDHA) was incubated with NADH or MA, followed by incubation with 30 µL of Cibacron Blue agarose at 4 °C for 2 h. After a washing step with 20 mM Tris-HCl (pH 8.6), LDHA bound to beads was eluted in PBS using a sodium dodecyl sulfate (SDS) gel running buffer and was then subjected to–SDS-polyacrylamide gel electrophoresis (SDS-PAGE) and western blotting. Standardized amounts of protein were used in each reaction.

For another test, the system named is DLD-1. In words: Cell viability, MTT assay. In kind it is cell-based. Particulars: Homo sapiens, normoxic. How it is done: (§1) Human colon cancer cells (WiDr, DLD-1, RKO, and HT29) and murine Lewis lung carcinoma (LLC) cells were purchased from the American Type Culture Collection (Manassas, VA, USA). Human breast cancer MCF7 cells, human hepatocellular carcinoma cells (Huh-7, HepG2, and Hep3B), and human lung cancer cells (HCC-95 and NCI-H1793) were provided by the Korean Cell Line Bank (Seoul, Korea). The HCC-95 and NCI-H1793 cells were grown in a Roswell park memorial institute medium (RPMI) 1640 medium (HyClone^TM; GE Healthcare, Chicago, IL, USA). All other cells were grown in Dulbecco’s modified eagle medium (DMEM) supplemented with L-glutamine (200 mg/L), 10% (v/v) heat-inactivated fetal bovine serum (FBS; Sigma-Aldrich, St. Louis, MO, USA), and antibiotics (100 U/mL penicillin and 100 μg/mL streptomycin; Thermo Fisher Scientific, Waltham, MA, USA) in a humidified incubator at 37 °C and with 5% CO2 before the experiments. For induction of hypoxia condition (1% oxygen), the cells were cultured were cultured in the mixture of 94% nitrogen and 5% CO2/air at 37 °C for 24 h in cell culture incubator. Cytotoxicity of MA was evaluated using an MTT assay. Briefly, cells were incubated in 24-well plates with specified concentrations of MA for 24 or 48 h. Then, MTT solution (2.0 mg/mL) was added to each well. After 4 h of incubation at 37 °C and 5% CO2 in a cell culture incubator, the conditioned media were removed, and the amount of formazan crystals formed in living cells was estimated by measuring the absorbance at 540 nm using a microplate reader (Spectramax M2; Molecular Devices, CA, USA). The respective percentages of living cells were compared with a control treatment.

For another test, the system named is HCC-95. In words: Cell viability, MTT assay. In kind it is cell-based. Particulars: Homo sapiens, HCC95, normoxic. How it is done:
as §1

The next test deals with RKO. In words: Cell viability, MTT assay. Type of test: cell-based. Particulars: Homo sapiens, normoxic. How it is done: as §1
The subject of another test is WiDr. In words: Cell viability, MTT assay. Type of test: cell-based. Particulars: Homo sapiens, normoxic. As to the method:
as §1

Another test relates to HT29 colon cancer cells. In words: Colony formation assay. As to conditions: three weeks. In kind it is cell-based, human. How it is done:
(§2) Base agar (0.6%) was placed at the bottom of the 6-well culture plate. After 30 min at room temperature, top agar (0.4%) mixed with HT29 (1 × 10^4 cells) or Hep3B (1 × 10^4 cells) cells was added to the base agar. HT29 and Hep3B cells were incubated at 37 °C and 5% CO2 for three weeks. The colonies were stained using 0.005% crystal violet for 1 h after which they were photographed and counted.

The next test has as its system Hep3B liver cancer cells. In words: Colony formation assay. In kind it is cell-based, human. As to conditions: three weeks. As to the method: as §2
For the next test, the target named is LDHA (Homo sapiens, UniProt P00338). In words: Surface plasmon resonance (SPR) biosensor analysis of LDHA binding. The arrangement: Full-length LDHA (residues 1–331) was obtained from cDNA by polymerase chain reaction (PCR); inferred from pET-28a vector and Ni-NTA purification; made in house; host or cells: E. coli BL21 (DE3). As to conditions: 25 °C, read-out: apparent KD of binding to LDHA. As to the method: The apparent dissociation constants (KD) between LDHA and Machilin A were measured using a Biacore T100 biosensor (GE Healthcare, Chicago, IL, USA). […] A total of 150 μL LDHA (50 μg/mL) in 10 mM sodium acetate (pH 5.5) was coupled via injection for 15 min at 10 μL/min, followed by injection of 1 M ethanolamine to deactivate the residual amines. To measure kinetics at 25 °C, chemical compounds with concentrations ranging from 500 to 62 μM were prepared by dilution in running buffer (10 mM HEPES, 150 mM NaCl, 0.005% v/v surfactant P20, and 1% DMSO) at a pH of 7.4. The immobilized ligand was regenerated by injecting 10 μL of 50 mM NaOH at a rate of 10 μL/min during the cycles.

Turning to `C[C@H](Cc1ccc2c(c1)OCO2)[C@@H](C)Cc1ccc2c(c1)OCO2` [MA, bis(3,4-methylenedioxy)-8,8’-lignan], the “LDHA binding to Cibacron Blue Agarose beads (NADH mimic)” value in test [1] is “prohibited LDHA binding”. Further, the IC50 with DLD-1 stood at 423 ± 17.6 µM; in the test with HCC-95 it was 228 ± 13.9 µM; with RKO it was 192 ± 15.2 µM; in the test on WiDr, 17.2 ± 5.75 µM. Further, the “number of surviving colonies” value in the test on HT29 colon cancer cells and in the test on Hep3B liver cancer cells was “significantly reduced” each time. Further, on LDHA, the Kd worked out at 29 µM.

The values above are taken from PMC6678097, “Machilin A Inhibits Tumor Growth and Macrophage M2 Polarization Through the Reduction of Lactic Acid” (Cancers, 2019).
